Measured values published in US8933233B2, “1,3,4-oxadiazole and 1,3,4-thiadiazole β-lactamase inhibitors” (priority 2012, dated 2015).
Structures can show the parent of a compound that is named as a salt.

Key:
[1] = tested on: bacterial strains that express the class D cephalosporinase OXA-15; assay: Synergy MIC / standard BLI potentiation MIC assay, strains expressing OXA-15; assay type: cell-based, E. coli; conditions: in presence of a β-lactam; comparator Avibactam (CCC)
Method: (§1) Unless otherwise indicated, the activity of the BLI compounds can be described by the MIC value obtained from a Synergy MIC assay or a BLI potentiation assay (e.g as described herein), both of which are run in the presence of a β-lactam.
(§2) The experimental protocol was performed according to Clinical and Laboratory Standards Institute (CLSI) guidelines with modifications as described below (CLSI guidelines can be derived from the CLSI document M07-A9 published in January 2012: “Methods for Dilution Antimicrobial Susceptibility Tests for Bacteria That Grow Aerobically; Approved Standard-Ninth Edition”).
(§3) To prepare for MIC testing, frozen glycerol stocks of clinical isolates (Klebsiella pneumoniae, Eschericia coli, Enterobacter spp, Citrobacter spp, or Pseudomonas aeruginosa) were used to streak for isolated colonies on rich, non-selective, tryptic soy agar containing 5% sheep's blood (TSAB). Frozen glycerol stocks of laboratory engineered, isogenic E. coli strains, which contain cloned β-lactamase expressing plasmids were used to streak for isolated colonies on rich, selective LB agar supplemented with 25 μg/mL tetracycline to maintain the plasmid. All strains were incubated at 37° C. for 18-24 hrs.
(§4) On the day of testing, primary cultures were started by scraping off 5-10 colonies from the TSAB plates containing clinical strains or the tetracycline supplemented LB plates containing engineered strains. The clinical strain material was suspended in ˜5 mL of cation adjusted Mueller Hinton Broth (CAMHB) in 14 mL culture tubes. The engineered strain material was suspended in CAMHB (supplemented with 25 μg/mL tetracycline) in 14 mL culture tubes. All strains were incubated at 37° C. with aeration (200 rpm) for ˜2 hrs until the optical density at 600 nm (OD600) was ≧0.1.
(§5) The two compound components of the assay were each diluted in CAMHB and added to the 96-well broth microdilution assay plates. 50 μL of the β-lactam was added to each well of the assay plate in 2-fold dilutions with final concentrations ranging from 128 to 0.13 μg/mL. 25 μL of the BLI compound was added to all wells in the broth microdilution plates at a final concentration of 4 μg/mL. Inoculum cultures were prepared by standardizing the primary cultures to OD600=0.1 and then adding 20 μL of the adjusted primary culture per 1 mL CAMHB for clinical strains or CAMHB (supplemented with tetracycline at 100 μg/mL) for engineered strains, so that the final inoculum density was ˜10^5 colony forming units per milliliter. Diluted inoculum cultures were used to inoculate 25 μL per well in 96-well broth microdilution assay plates. The final volume of each well was 100 μL and contained a β-lactam at different concentrations, a BLIcompound at 4 μg/mL concentration, the bacterial culture at an OD600 of approximately 0.001 and when necessary tetracycline at 25 μg/mL.
(§6) Plates were incubated for 18-20 hours at 37° C. with aeration (200 rpm). Following incubation, growth was confirmed visually placing plates over a viewing apparatus (stand with a mirror underneath) and then OD600 was measured using a SpectraMax 340PC384 plate reader (Molecular Devices, Sunnyvale, Calif.). Growth was defined as turbidity that could be detected with the naked eye or achieving minimum OD600 of 0.1. MIC values were defined as the lowest concentration producing no visible turbidity.
(§7) The synergy MIC (sMIC) assay determines the concentration of the BLI required to potentiate the activity of a fixed concentration of a β-lactam antibiotic against β-lactamase producing bacterial strains. The experimental protocol was performed according to Clinical and Laboratory Standards Institute (CLSI) guidelines with modifications as described below (CLSI guidelines can be derived from the CLSI document M07-A9 published in January 2012: “Methods for Dilution Antimicrobial Susceptibility Tests for Bacteria That Grow Aerobically; Approved Standard-Ninth Edition”). […]

[2] = tested on: bacterial strains that express KPC β-lactamases; assay: Synergy MIC / standard BLI potentiation MIC assay, strains expressing KPC β-lactamases; assay type: cell-based, isogenic E. coli and clinical isolates; conditions: more active for at least one KPC strain and/or better spectrum; comparator Avibactam
Method: as §1, §2, §3, §4, §5, §6, §7

SMILES | activity against bacterial strains that express OXA-15, compared with Avibactam [1] | activity and/or spectrum of activity against bacterial strains that express KPC β-lactamases, compared with Avibactam [2]
NC1(Cc2nnc([C@@H]3CC[C@@H]4CN3C(=O)N4OS(=O)(=O)O)o2)CC1 [Compound 724, (2S,5R)-2-(5-((1-aminocyclopropyl)methyl)-1,3,4-oxadiazol-2-yl)-7-oxo-1,6-diazabicyclo[3.2.1]octan-6-yl hydrogen sulfate] | more active than Avibactam | more active than Avibactam
O=C1N2C[C@@H](CC[C@H]2c2nnc(CCN3CCNCC3)o2)N1OS(=O)(=O)O [Compound 776, (2S,5R)-7-oxo-2-(5-(2-(piperazin-1-yl)ethyl)-1,3,4-oxadiazol-2-yl)-1,6-diazabicyclo[3.2.1]octan-6-yl hydrogen sulfate] | more active than Avibactam | more active than Avibactam
CC(C)(N)Cc1nnc([C@@H]2CC[C@@H]3CN2C(=O)N3OS(=O)(=O)O)o1 [Compound 737, (2S,5R)-2-(5-(2-amino-2-methylpropyl)-1,3,4-oxadiazol-2-yl)-7-oxo-1,6-diazabicyclo[3.2.1]octan-6-yl hydrogen sulfate] | more active than Avibactam | more active than Avibactam
CNCCc1nnc([C@@H]2CC[C@@H]3CN2C(=O)N3OS(=O)(=O)O)o1 [Compound 722, (2S,5R)-2-(5-(2-(methylamino)ethyl)-1,3,4-oxadiazol-2-yl)-7-oxo-1,6-diazabicyclo[3.2.1]octan-6-yl hydrogen sulfate] | more active than Avibactam | more active than Avibactam
N=C(N)N1CC(c2nnc([C@@H]3CC[C@@H]4CN3C(=O)N4OS(=O)(=O)O)o2)C1 [Compound 709, (2S,5R)-2-(5-(1-carbamimidoylazetidin-3-yl)-1,3,4-oxadiazol-2-yl)-7-oxo-1,6-diazabicyclo[3.2.1]octan-6-yl hydrogen sulfate] | more active than Avibactam | more active than Avibactam
O=C1N2C[C@@H](CC[C@H]2c2nnc(CN3CCNCC3)o2)N1OS(=O)(=O)O [Compound 777, (2S,5R)-7-oxo-2-(5-(piperazin-1-ylmethyl)-1,3,4-oxadiazol-2-yl)-1,6-diazabicyclo[3.2.1]octan-6-yl hydrogen sulfate] | more active than Avibactam | more active than Avibactam
O=C1N2C[C@@H](CC[C@H]2c2nnc(CN[C@H]3CCNC3)o2)N1OS(=O)(=O)O [Compound 765, (2S,5R)-7-oxo-2-(5-(((S)-pyrrolidin-3-ylamino)methyl)-1,3,4-oxadiazol-2-yl)-1,6-diazabicyclo[3.2.1]octan-6-yl hydrogen sulfate] | more active than Avibactam | more active than Avibactam
O=C1N2C[C@@H](CC[C@H]2c2nnco2)N1OS(=O)(=O)O [Compound 701, (2S,5R)-2-(1,3,4-oxadiazol-2-yl)-7-oxo-1,6-diazabicyclo[3.2.1]octan-6-yl hydrogen sulfate] | more active than Avibactam | more active than Avibactam
N=C(N)NC1CC(Cc2nnc([C@@H]3CC[C@@H]4CN3C(=O)N4OS(=O)(=O)O)o2)C1 (stereo partly drawn) [Compound 752, (2S,5R)-2-(5-((3-guanidinocyclobutyl)methyl)-1,3,4-oxadiazol-2-yl)-7-oxo-1,6-diazabicyclo[3.2.1]octan-6-yl hydrogen sulfate] | more active than Avibactam | more active than Avibactam
O=C1N2C[C@@H](CC[C@H]2c2nnc([C@H]3CNCCN3)o2)N1OS(=O)(=O)O [Compound 779, (2S,5R)-7-oxo-2-(5-((R)-piperazin-2-yl)-1,3,4-oxadiazol-2-yl)-1,6-diazabicyclo[3.2.1]octan-6-yl hydrogen sulfate] | more active than Avibactam | more active than Avibactam
O=C1N2C[C@@H](CC[C@H]2c2nnc(COC3CNC3)o2)N1OS(=O)(=O)O [Compound 744, (2S,5R)-2-(5-((azetidin-3-yloxy)methyl)-1,3,4-oxadiazol-2-yl)-7-oxo-1,6-diazabicyclo[3.2.1]octan-6-yl hydrogen sulfate] | more active than Avibactam | more active than Avibactam
N=C(N)N1CC(Cc2nnc([C@@H]3CC[C@@H]4CN3C(=O)N4OS(=O)(=O)O)o2)C1 [Compound 741, (2S,5R)-2-(5-((1-carbamimidoylazetidin-3-yl)methyl)-1,3,4-oxadiazol-2-yl)-7-oxo-1,6-diazabicyclo[3.2.1]octan-6-yl hydrogen sulfate] | more active than Avibactam | more active than Avibactam
N[C@@H]1CN[C@@H](c2nnc([C@@H]3CC[C@@H]4CN3C(=O)N4OS(=O)(=O)O)o2)C1 [Compound 763, (2S,5R)-2-(5-((2R,4S)-4-aminopyrrolidin-2-yl)-1,3,4-oxadiazol-2-yl)-7-oxo-1,6-diazabicyclo[3.2.1]octan-6-yl hydrogen sulfate] | more active than Avibactam | more active than Avibactam
NCc1nnc([C@@H]2CC[C@@H]3CN2C(=O)N3OS(=O)(=O)O)o1 [Compound 702, (2S,5R)-2-(5-(aminomethyl)-1,3,4-oxadiazol-2-yl)-7-oxo-1,6-diazabicyclo[3.2.1]octan-6-yl hydrogen sulfate] | more active than Avibactam | more active than Avibactam
NC1CC(NCc2nnc([C@@H]3CC[C@@H]4CN3C(=O)N4OS(=O)(=O)O)o2)C1 (stereo partly drawn) [Compound 755, (2S,5R)-2-(5-(((3-aminocyclobutyl)amino)methyl)-1,3,4-oxadiazol-2-yl)-7-oxo-1,6-diazabicyclo[3.2.1]octan-6-yl hydrogen sulfate] | more active than Avibactam | more active than Avibactam
N[C@H]1C[C@H](CCc2nnc([C@@H]3CC[C@@H]4CN3C(=O)N4OS(=O)(=O)O)o2)C1 [Compound 753, (2S,5R)-2-(5-(2-((1r,3R)-3-aminocyclobutyl)ethyl)-1,3,4-oxadiazol-2-yl)-7-oxo-1,6-diazabicyclo[3.2.1]octan-6-yl hydrogen sulfate] | more active than Avibactam | more active than Avibactam
